US20040102454A1, “Phenylahistin and the phenylahistin analogs, a new class of anti-tumor compounds” (priority 1998, published 2004)

Tests used:
Experiment in all cases: HCC panel assay, sulforhodamine B
Assay type in all cases: cell-based
[1] = system: MKN45; conditions: MKN45, Stomach, (−)-PLH content 24.1%
Procedure: (§1) The antitumor activity of PLH was evaluated by the Human Cancer Cell Line Panel (HCC panel) assay, see Yamori T., Jap. J Cancer Chemother., (1997), 24, 129-35. This HCC panel consists of 38 tumor cell lines including 7 lung cancer, 6 stomach, 6 colon, 5 ovary, 6 central nerve system, 5 breast, 2 kidney and 1 melanoma cell lines. Each tumor cell was seeded in 96-well tissue culture plates and incubated overnight. Various concentrations (5 doses; final 10^−4, 10^−5, 10^−6, 10^−7 and 10^−8 M) of PLH were added, and the cells were incubated for 48 hours. […] All mice were obtained from Japan SLC (Shizuoka, Japan), P388 leukemia cells were obtained from Dainippon Pharmaceuticals Inc. (Osaka, Japan), Lewis Lung Carcinoma from Riken Cell Bank (Tsukuba, Japan), and Colon 26 cells from the National Cancer Center, Japan (Tokyo, Japan).

[2] = system: KM-12; conditions: KM-12, Colon, (−)-PLH content 24.1%
Procedure: as §1

[3] = system: SK-OV-3; conditions: SK-OV-3, Ovary, (−)-PLH content 24.1%
Procedure: as §1

[4] = system: SNB-75; conditions: SNB-75, CNS, (−)-PLH content 24.1%
Procedure: as §1

[5] = system: St-4; conditions: St-4, Stomach, (−)-PLH content 24.1%
Procedure: as §1

[6] = system: MDA-MB-231; conditions: MDA-MB-231, Breast, (−)-PLH content 24.1%
Procedure: as §1

[7] = system: MKN74; conditions: MKN74, Stomach, (−)-PLH content 24.1%
Procedure: as §1

[8] = system: RXF-6311; conditions: RXF-6311, Renal, (−)-PLH content 24.1%
Procedure: as §1

[9] = system: SNB-78; conditions: SNB-78, CNS, (−)-PLH content 24.1%
Procedure: as §1

[10] = system: HCT-15; conditions: HCT-15, Colon, (−)-PLH content 24.1%
Procedure: as §1

[11] = system: DMS114; conditions: DMS114, Lung, (−)-PLH content 24.1%
Procedure: as §1

[12] = system: NCI-H226; conditions: NCI-H226, Lung, (−)-PLH content 24.1%
Procedure: as §1

[13] = system: SF-539; conditions: SF-539, CNS, (−)-PLH content 24.1%
Procedure: as §1

[14] = system: OVCAR-4; conditions: OVCAR-4, Ovary, (−)-PLH content 24.1%
Procedure: as §1

[15] = system: HCC2998; conditions: HCC2998, Colon, (−)-PLH content 24.1%
Procedure: as §1

[16] = system: MKN1; conditions: MKN1, Stomach, (−)-PLH content 24.1%
Procedure: as §1

[17] = system: OVCAR-5; conditions: OVCAR-5, Ovary, (−)-PLH content 24.1%
Procedure: as §1

[18] = system: HT-29; conditions: HT-29, Colon, (−)-PLH content 24.1%
Procedure: as §1

[19] = system: MKN7; conditions: MKN7, Stomach, (−)-PLH content 24.1%
Procedure: as §1

[20] = system: SF-268; conditions: SF-268, CNS, (−)-PLH content 24.1%
Procedure: as §1

[21] = Homo sapiens, read-out: GL50 (the source's name)
[22] = Homo sapiens, read-out: LC50 (the source's name)

C=CC(C)(C)c1[nH]cnc1/C=C1\NC(=O)[C@H](Cc2ccccc2)NC1=O (racemic) [PLH, phenylahistin]
IC50 ([1]; Homo sapiens, MKN-45, read-out: GL50 (the source's name)): 1.5 µM | CC50 ([1]; Homo sapiens, MKN-45, read-out: LC50 (the source's name)): > 100 µM | TGI [1]: >100 µM | IC50 ([2]; Homo sapiens, KM12, read-out: GL50 (the source's name)): 0.38 µM | CC50 ([2]; Homo sapiens, KM12, read-out: LC50 (the source's name)): > 100 µM | TGI [2]: >100 µM | IC50 [3, 21]: 0.37 µM | CC50 [3, 22]: > 100 µM | TGI [3]: >100 µM | IC50 [4, 21]: 0.37 µM | CC50 [4, 22]: > 100 µM | TGI [4]: >100 µM | IC50 [5, 21]: 40 µM | CC50 [5, 22]: > 100 µM | TGI [5]: >100 µM | IC50 [6, 21]: 0.64 µM | CC50 [6, 22]: > 100 µM | TGI [6]: 6 µM | IC50 ([7]; Homo sapiens, MKN-74, read-out: GL50 (the source's name)): 0.48 µM | CC50 ([7]; Homo sapiens, MKN-74, read-out: LC50 (the source's name)): > 100 µM | TGI [7]: >100 µM | IC50 [8, 21]: 1.9 µM | CC50 [8, 22]: > 100 µM | TGI [8]: >100 µM | IC50 [9, 21]: 1.3 µM | CC50 [9, 22]: > 100 µM | TGI [9]: >100 µM | TGI [10]: >100 µM | IC50 [10, 21]: 0.49 µM | CC50 [10, 22]: > 100 µM | TGI [11]: 2.4 µM | IC50 ([11]; Homo sapiens, DMS-114, read-out: GL50 (the source's name)): 0.33 µM | CC50 ([11]; Homo sapiens, DMS-114, read-out: LC50 (the source's name)): > 100 µM | IC50 [12, 21]: 0.41 µM | CC50 [12, 22]: > 100 µM | TGI [12]: 31 µM | IC50 [13, 21]: 0.23 µM | CC50 [13, 22]: 11 µM | TGI [13]: 0.6 µM | IC50 [14, 21]: 40 µM | CC50 [14, 22]: > 100 µM | TGI [14]: >100 µM | TGI [15]: 5.3 µM | IC50 ([15]; Homo sapiens, HCC 2998, read-out: GL50 (the source's name)): 1.1 µM | CC50 ([15]; Homo sapiens, HCC 2998, read-out: LC50 (the source's name)): > 100 µM | IC50 ([16]; Homo sapiens, MKN-1, read-out: GL50 (the source's name)): 0.4 µM | CC50 ([16]; Homo sapiens, MKN-1, read-out: LC50 (the source's name)): > 100 µM | TGI [16]: 21 µM | IC50 [17, 21]: 1.2 µM | CC50 [17, 22]: > 100 µM | TGI [17]: >100 µM | TGI [18]: >100 µM | IC50 [18, 21]: 0.4 µM | CC50 [18, 22]: > 100 µM | IC50 ([19]; Homo sapiens, MKN-7, read-out: GL50 (the source's name)): 0.39 µM | CC50 ([19]; Homo sapiens, MKN-7, read-out: LC50 (the source's name)): > 100 µM | TGI [19]: >100 µM | IC50 [20, 21]: 0.41 µM | CC50 [20, 22]: > 100 µM | TGI [20]: >100 µM
